Legend:
Experiment in all cases: cell-based
hNav1.4 = hNav1.4 (Homo sapiens, UniProt P35499); type: cell-based; conditions: Table 6; for IC50: IonWorks Quattro, read-out: IC50 (μM) Nav1.4; for Nav1.4/Nav1.7: ratio of IonWorks Quattro IC50 values
hNav1.7 = hNav1.7 (Homo sapiens, UniProt Q15858); conditions: read-out: IC50 (μM) Nav1.7
hNav1.3 = hNav1.3 (Homo sapiens, UniProt Q9NY46); conditions: IonWorks Quattro; Table 6; read-out: IC50 (μM) Nav1.3
hNav1.5 = hNav1.5 (Homo sapiens, UniProt Q14524); conditions: IonWorks Quattro; Table 6; read-out: IC50 (μM) Nav1.5

Chain of hNav1.3 (Q9NY46 whole entry): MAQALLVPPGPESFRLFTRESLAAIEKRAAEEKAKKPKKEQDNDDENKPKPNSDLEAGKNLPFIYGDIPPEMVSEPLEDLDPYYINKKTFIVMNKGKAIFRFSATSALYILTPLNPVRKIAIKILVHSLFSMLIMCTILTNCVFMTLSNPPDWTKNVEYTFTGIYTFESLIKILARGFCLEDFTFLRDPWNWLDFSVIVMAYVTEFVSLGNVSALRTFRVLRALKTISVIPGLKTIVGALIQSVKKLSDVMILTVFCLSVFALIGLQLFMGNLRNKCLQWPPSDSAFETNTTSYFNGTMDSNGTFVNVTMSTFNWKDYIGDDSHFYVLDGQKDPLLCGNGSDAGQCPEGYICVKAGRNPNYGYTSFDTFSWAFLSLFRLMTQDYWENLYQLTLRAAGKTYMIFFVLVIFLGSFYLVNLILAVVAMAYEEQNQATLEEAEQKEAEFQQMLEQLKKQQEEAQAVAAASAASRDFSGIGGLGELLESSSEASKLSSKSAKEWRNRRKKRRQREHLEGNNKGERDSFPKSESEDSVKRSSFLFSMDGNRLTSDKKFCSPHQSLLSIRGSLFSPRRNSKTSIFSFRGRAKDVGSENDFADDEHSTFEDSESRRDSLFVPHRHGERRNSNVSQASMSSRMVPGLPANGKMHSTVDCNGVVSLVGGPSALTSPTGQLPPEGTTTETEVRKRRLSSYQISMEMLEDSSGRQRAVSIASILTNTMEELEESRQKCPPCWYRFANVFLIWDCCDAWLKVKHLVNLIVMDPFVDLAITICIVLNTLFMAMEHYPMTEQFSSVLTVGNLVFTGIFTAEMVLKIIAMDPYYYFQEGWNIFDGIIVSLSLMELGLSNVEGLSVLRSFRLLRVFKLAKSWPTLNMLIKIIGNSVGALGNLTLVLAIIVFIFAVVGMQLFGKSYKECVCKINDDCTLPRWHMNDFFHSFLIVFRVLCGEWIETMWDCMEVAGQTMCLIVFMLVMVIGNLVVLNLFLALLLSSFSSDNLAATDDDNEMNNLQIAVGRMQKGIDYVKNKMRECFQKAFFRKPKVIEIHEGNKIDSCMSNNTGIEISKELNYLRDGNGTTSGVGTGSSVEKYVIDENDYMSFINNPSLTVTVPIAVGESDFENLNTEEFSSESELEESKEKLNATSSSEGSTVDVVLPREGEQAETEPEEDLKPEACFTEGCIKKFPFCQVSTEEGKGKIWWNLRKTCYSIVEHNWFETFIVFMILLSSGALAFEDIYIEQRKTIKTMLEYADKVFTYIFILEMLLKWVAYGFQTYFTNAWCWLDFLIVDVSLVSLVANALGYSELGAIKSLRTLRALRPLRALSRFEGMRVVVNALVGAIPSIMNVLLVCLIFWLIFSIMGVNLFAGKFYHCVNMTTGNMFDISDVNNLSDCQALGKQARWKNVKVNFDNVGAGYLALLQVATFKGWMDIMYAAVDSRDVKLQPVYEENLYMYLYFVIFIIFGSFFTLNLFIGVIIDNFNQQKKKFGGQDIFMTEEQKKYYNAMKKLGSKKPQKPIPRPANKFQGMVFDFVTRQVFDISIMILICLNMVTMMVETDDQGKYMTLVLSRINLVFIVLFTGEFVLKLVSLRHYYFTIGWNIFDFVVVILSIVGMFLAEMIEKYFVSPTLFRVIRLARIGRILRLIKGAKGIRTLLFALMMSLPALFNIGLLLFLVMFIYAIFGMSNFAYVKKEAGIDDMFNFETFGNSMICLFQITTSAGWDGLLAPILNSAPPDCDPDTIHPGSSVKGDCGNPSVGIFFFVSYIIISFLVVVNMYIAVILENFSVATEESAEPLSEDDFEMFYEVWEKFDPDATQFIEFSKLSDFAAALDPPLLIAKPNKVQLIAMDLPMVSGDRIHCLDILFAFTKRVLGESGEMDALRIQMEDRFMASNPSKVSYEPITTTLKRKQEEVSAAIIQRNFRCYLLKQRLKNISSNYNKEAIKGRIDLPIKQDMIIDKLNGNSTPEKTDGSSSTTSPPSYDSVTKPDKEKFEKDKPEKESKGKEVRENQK
Chain of hNav1.4 (P35499 whole entry): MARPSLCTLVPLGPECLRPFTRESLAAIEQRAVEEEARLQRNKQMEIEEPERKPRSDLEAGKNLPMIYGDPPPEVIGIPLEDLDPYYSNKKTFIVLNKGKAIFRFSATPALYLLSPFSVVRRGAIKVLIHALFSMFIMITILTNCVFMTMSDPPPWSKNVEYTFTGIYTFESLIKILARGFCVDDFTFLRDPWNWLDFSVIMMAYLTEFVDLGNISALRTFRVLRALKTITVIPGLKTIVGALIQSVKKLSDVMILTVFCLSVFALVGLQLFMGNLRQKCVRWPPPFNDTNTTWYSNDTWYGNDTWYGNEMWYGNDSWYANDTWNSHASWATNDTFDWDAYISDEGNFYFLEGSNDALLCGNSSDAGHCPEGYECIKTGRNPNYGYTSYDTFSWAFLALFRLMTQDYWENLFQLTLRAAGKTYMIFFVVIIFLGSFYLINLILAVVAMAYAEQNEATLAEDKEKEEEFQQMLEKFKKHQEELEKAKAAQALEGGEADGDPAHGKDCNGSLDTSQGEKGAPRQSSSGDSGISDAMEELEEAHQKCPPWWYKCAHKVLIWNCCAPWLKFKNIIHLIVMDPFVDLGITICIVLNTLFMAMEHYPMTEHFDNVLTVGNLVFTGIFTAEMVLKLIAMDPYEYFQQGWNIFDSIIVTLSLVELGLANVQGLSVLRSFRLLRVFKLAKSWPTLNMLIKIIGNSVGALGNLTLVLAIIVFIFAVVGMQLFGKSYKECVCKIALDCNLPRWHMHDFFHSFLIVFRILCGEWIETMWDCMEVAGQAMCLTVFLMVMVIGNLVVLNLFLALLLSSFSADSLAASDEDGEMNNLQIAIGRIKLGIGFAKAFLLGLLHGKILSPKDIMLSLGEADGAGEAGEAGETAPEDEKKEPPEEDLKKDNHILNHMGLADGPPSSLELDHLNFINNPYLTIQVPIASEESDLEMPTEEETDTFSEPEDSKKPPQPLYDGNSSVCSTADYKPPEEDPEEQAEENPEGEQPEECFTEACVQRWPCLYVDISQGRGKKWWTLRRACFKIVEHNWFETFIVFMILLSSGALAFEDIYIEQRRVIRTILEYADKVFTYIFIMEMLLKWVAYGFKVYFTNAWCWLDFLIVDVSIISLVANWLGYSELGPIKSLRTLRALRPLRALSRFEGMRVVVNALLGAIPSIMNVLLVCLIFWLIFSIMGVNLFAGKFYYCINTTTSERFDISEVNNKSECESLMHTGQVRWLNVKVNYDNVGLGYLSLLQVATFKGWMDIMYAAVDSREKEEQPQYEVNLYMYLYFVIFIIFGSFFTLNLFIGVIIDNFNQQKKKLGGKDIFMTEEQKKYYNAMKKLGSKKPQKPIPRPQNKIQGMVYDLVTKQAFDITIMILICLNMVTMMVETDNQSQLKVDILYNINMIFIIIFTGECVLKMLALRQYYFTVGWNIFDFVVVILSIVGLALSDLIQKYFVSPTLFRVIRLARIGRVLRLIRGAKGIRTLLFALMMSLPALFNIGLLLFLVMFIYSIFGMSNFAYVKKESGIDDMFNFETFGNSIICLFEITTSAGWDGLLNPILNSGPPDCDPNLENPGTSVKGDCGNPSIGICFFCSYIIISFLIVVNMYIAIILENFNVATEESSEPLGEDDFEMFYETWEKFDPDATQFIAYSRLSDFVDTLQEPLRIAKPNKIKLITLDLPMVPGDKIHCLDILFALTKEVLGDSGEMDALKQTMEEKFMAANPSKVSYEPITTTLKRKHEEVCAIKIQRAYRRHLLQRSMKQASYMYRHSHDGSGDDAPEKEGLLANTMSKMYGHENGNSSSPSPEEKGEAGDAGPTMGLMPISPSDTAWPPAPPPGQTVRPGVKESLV

| Compound | IC50 (hNav1.4) [µM] | Nav1.4/Nav1.7 (hNav1.4) | IC50 (hNav1.7) [µM] | IC50 (hNav1.3) [µM] | IC50 (hNav1.5) [µM] |
| --- | --- | --- | --- | --- | --- |
| CC[C@H](C)[C@H](NC(=O)[C@H](Cc1cccc2ccccc12)NC(=O)[C@H](CCCCN)NC(=O)[C@H](CCCNC(=N)N)NC(=O)[C@@H]1CSSC[C@@H]2NC(=O)[C@H](C)NC(=O)[C@H](CCCNC(=N)N)NC(=O)[C@H](CCCCN)NC(=O)[C@H](CO)NC(=O)[C@H](CC(=O)O)NC(=O)[C@@H]3CSSC[C@H](NC(=O)[C@H](CCCNC(=N)N)NC(=O)[C@H](CC(C)C)NC(=O)CNC(=O)[C@H](CCC(=O)O)NC(=O)[C@H](CSSC[C@H](NC(=O)[C@@H](N)Cc4ccc(O)cc4)C(=O)N[C@@H](CCC(N)=O)C(=O)N[C@@H](CCCCN)C(=O)N[C@@H](Cc4c[nH]c5ccccc45)C(=O)N[C@@H](CCSC)C(=O)N[C@@H](Cc4c[nH]c5ccccc45)C(=O)N[C@@H]([C@@H](C)O)C(=O)N3)NC2=O)C(=O)N[C@@H](CCCCN)C(=O)N[C@@H](CC(C)C)C(=O)N[C@@H](Cc2c[nH]c3ccccc23)C(=O)N1)C(N)=O [compound 46] | 0.1 | 17 | 0.006 | 0.06 | 3.6 |
| CC[C@H](C)[C@H](NC(=O)[C@@H](NC(=O)[C@H](CCCCN)NC(=O)[C@H](CCCNC(=N)N)NC(=O)[C@@H]1CSSC[C@@H]2NC(=O)[C@H](C)NC(=O)[C@H](CCCNC(=N)N)NC(=O)[C@H](CCCCN)NC(=O)[C@H](CO)NC(=O)[C@H](CC(=O)O)NC(=O)[C@@H]3CSSC[C@H](NC(=O)[C@H](CCCNC(=N)N)NC(=O)[C@H](CC(C)C)NC(=O)CNC(=O)[C@H](CCC(=O)O)NC(=O)[C@H](CSSC[C@H](NC(=O)[C@@H](N)CCCCN)C(=O)N[C@@H](CCC(N)=O)C(=O)N[C@@H](CCCCN)C(=O)N[C@@H](Cc4c[nH]c5ccccc45)C(=O)N[C@@H](CCSC)C(=O)N[C@@H](Cc4c[nH]c5ccccc45)C(=O)N[C@@H]([C@@H](C)O)C(=O)N3)NC2=O)C(=O)N[C@@H](CCCCN)C(=O)N[C@@H](CC(C)C)C(=O)N[C@@H](Cc2c[nH]c3ccccc23)C(=O)N1)[C@@H](C)CC)C(N)=O [compound 71] | 0.06 | 12 | 0.005 | 0.05 | 2.3 |
| CC[C@H](C)[C@H](NC(=O)[C@@H](NC(=O)[C@H](CCCCN)NC(=O)[C@H](CCCNC(=N)N)NC(=O)[C@@H]1CSSC[C@@H]2NC(=O)[C@H](C)NC(=O)[C@H](CCCNC(=N)N)NC(=O)[C@H](CCCCN)NC(=O)[C@H](CO)NC(=O)[C@H](CC(=O)O)NC(=O)[C@@H]3CSSC[C@H](NC(=O)[C@H](CCCNC(=N)N)NC(=O)[C@H](CC(C)C)NC(=O)CNC(=O)[C@H](CCC(=O)O)NC(=O)[C@H](CSSC[C@H](NC(=O)[C@@H](N)Cc4ccc(O)cc4)C(=O)N[C@@H](CCC(N)=O)C(=O)N[C@@H](CCCCN)C(=O)N[C@@H](Cc4c[nH]c5ccccc45)C(=O)N[C@@H](CCSC)C(=O)N[C@@H](CCCCN)C(=O)N[C@@H]([C@@H](C)O)C(=O)N3)NC2=O)C(=O)N[C@@H](CCCCN)C(=O)N[C@@H](CC(C)C)C(=O)N[C@@H](Cc2c[nH]c3ccccc23)C(=O)N1)[C@@H](C)CC)C(N)=O [compound 75] | 0.43 | 5 | 0.08 | 0.31 | > 5 |
| CC[C@H](C)[C@H](NC(=O)[C@@H](NC(=O)[C@H](CCCCN)NC(=O)[C@H](CCCNC(=N)N)NC(=O)[C@@H]1CSSC[C@@H]2NC(=O)[C@H](C)NC(=O)[C@H](CCCNC(=N)N)NC(=O)[C@H](CCCCN)NC(=O)[C@H](CO)NC(=O)[C@H](CC(=O)O)NC(=O)[C@@H]3CSSC[C@H](NC(=O)[C@H](CCCNC(=N)N)NC(=O)[C@H](CC(C)C)NC(=O)CNC(=O)[C@H](CCC(=O)O)NC(=O)[C@H](CSSC[C@H](NC(=O)[C@@H](N)Cc4ccc(O)cc4)C(=O)N[C@@H](CCC(N)=O)C(=O)N[C@@H](CCCCN)C(=O)N[C@@H](Cc4c[nH]c5ccccc45)C(=O)N[C@@H](CCSC)C(=O)N[C@@H](Cc4c[nH]c5ccccc45)C(=O)N[C@@H](CCCCN)C(=O)N3)NC2=O)C(=O)N[C@@H](CCCCN)C(=O)N[C@@H](CC(C)C)C(=O)N[C@@H](Cc2c[nH]c3ccccc23)C(=O)N1)[C@@H](C)CC)C(N)=O [compound 76] | 0.1 | 3 | 0.031 | 0.1 | 3.7 |
| CC[C@H](C)[C@H](NC(=O)[C@@H](NC(=O)[C@H](CCCCN)NC(=O)[C@H](CCCNC(=N)N)NC(=O)[C@@H]1CSSC[C@@H]2NC(=O)[C@H](C)NC(=O)[C@H](CCCNC(=N)N)NC(=O)[C@H](CCCCN)NC(=O)[C@H](CCCCN)NC(=O)[C@H](CC(=O)O)NC(=O)[C@@H]3CSSC[C@H](NC(=O)[C@H](CCCNC(=N)N)NC(=O)[C@H](CC(C)C)NC(=O)CNC(=O)[C@H](CCC(=O)O)NC(=O)[C@H](CSSC[C@H](NC(=O)[C@@H](N)Cc4ccc(O)cc4)C(=O)N[C@@H](CCC(N)=O)C(=O)N[C@@H](CCCCN)C(=O)N[C@@H](Cc4c[nH]c5ccccc45)C(=O)N[C@@H](CCSC)C(=O)N[C@@H](Cc4c[nH]c5ccccc45)C(=O)N[C@@H]([C@@H](C)O)C(=O)N3)NC2=O)C(=O)N[C@@H](CCCCN)C(=O)N[C@@H](CC(C)C)C(=O)N[C@@H](Cc2c[nH]c3ccccc23)C(=O)N1)[C@@H](C)CC)C(N)=O [compound 78] | 0.11 | 13 | 0.008 | 0.05 | 1.1 |
| CC[C@H](C)[C@H](NC(=O)[C@@H](NC(=O)[C@H](CCCCN)NC(=O)[C@H](CCCNC(=N)N)NC(=O)[C@@H]1CSSC[C@@H]2NC(=O)[C@H](C)NC(=O)[C@H](CCCCN)NC(=O)[C@H](CCCCN)NC(=O)[C@H](CO)NC(=O)[C@H](CC(=O)O)NC(=O)[C@@H]3CSSC[C@H](NC(=O)[C@H](CCCNC(=N)N)NC(=O)[C@H](CC(C)C)NC(=O)CNC(=O)[C@H](CCC(=O)O)NC(=O)[C@H](CSSC[C@H](NC(=O)[C@@H](N)Cc4ccc(O)cc4)C(=O)N[C@@H](CCC(N)=O)C(=O)N[C@@H](CCCCN)C(=O)N[C@@H](Cc4c[nH]c5ccccc45)C(=O)N[C@@H](CCSC)C(=O)N[C@@H](Cc4c[nH]c5ccccc45)C(=O)N[C@@H]([C@@H](C)O)C(=O)N3)NC2=O)C(=O)N[C@@H](CCCCN)C(=O)N[C@@H](CC(C)C)C(=O)N[C@@H](Cc2c[nH]c3ccccc23)C(=O)N1)[C@@H](C)CC)C(N)=O [compound 79] | 0.47 | 7 | 0.064 | 0.12 | > 5 |
| CC[C@H](C)[C@H](NC(=O)[C@@H](NC(=O)[C@H](CCCCN)NC(=O)[C@H](CCCNC(=N)N)NC(=O)[C@@H]1CSSC[C@@H]2NC(=O)[C@H](CCCCN)NC(=O)[C@H](CCCNC(=N)N)NC(=O)[C@H](CCCCN)NC(=O)[C@H](CO)NC(=O)[C@H](CC(=O)O)NC(=O)[C@@H]3CSSC[C@H](NC(=O)[C@H](CCCNC(=N)N)NC(=O)[C@H](CC(C)C)NC(=O)CNC(=O)[C@H](CCC(=O)O)NC(=O)[C@H](CSSC[C@H](NC(=O)[C@@H](N)Cc4ccc(O)cc4)C(=O)N[C@@H](CCC(N)=O)C(=O)N[C@@H](CCCCN)C(=O)N[C@@H](Cc4c[nH]c5ccccc45)C(=O)N[C@@H](CCSC)C(=O)N[C@@H](Cc4c[nH]c5ccccc45)C(=O)N[C@@H]([C@@H](C)O)C(=O)N3)NC2=O)C(=O)N[C@@H](CCCCN)C(=O)N[C@@H](CC(C)C)C(=O)N[C@@H](Cc2c[nH]c3ccccc23)C(=O)N1)[C@@H](C)CC)C(N)=O [compound 80] | 0.07 | 10 | 0.007 | 0.03 | 1.5 |
| CC[C@H](C)[C@H](NC(=O)[C@@H](NC(=O)[C@H](CCCCN)NC(=O)[C@H](CCCNC(=N)N)NC(=O)[C@@H]1CSSC[C@@H]2NC(=O)[C@H](C)NC(=O)[C@H](CCCNC(=N)N)NC(=O)[C@H](CCCCN)NC(=O)[C@H](CO)NC(=O)[C@H](CC(=O)O)NC(=O)[C@@H]3CSSC[C@H](NC(=O)[C@H](CCCNC(=N)N)NC(=O)[C@H](CC(C)C)NC(=O)CNC(=O)[C@H](CCCCN)NC(=O)[C@H](CSSC[C@H](NC(=O)[C@@H](N)Cc4ccc(O)cc4)C(=O)N[C@@H](CCC(N)=O)C(=O)N[C@@H](CCCCN)C(=O)N[C@@H](Cc4c[nH]c5ccccc45)C(=O)N[C@@H](CCSC)C(=O)N[C@@H](Cc4c[nH]c5ccccc45)C(=O)N[C@@H]([C@@H](C)O)C(=O)N3)NC2=O)C(=O)N[C@@H](CCCCN)C(=O)N[C@@H](CC(C)C)C(=O)N[C@@H](Cc2c[nH]c3ccccc23)C(=O)N1)[C@@H](C)CC)C(N)=O [compound 81] | 0.05 | 5 | 0.01 | 0.03 | 0.89 |
| CC[C@H](C)[C@H](NC(=O)[C@@H](NC(=O)[C@H](CCCCN)NC(=O)[C@H](CCCNC(=N)N)NC(=O)[C@@H]1CSSC[C@@H]2NC(=O)[C@H](C)NC(=O)[C@H](CCCNC(=N)N)NC(=O)[C@H](CCCCN)NC(=O)[C@H](CO)NC(=O)[C@H](CC(=O)O)NC(=O)[C@@H]3CSSC[C@H](NC(=O)[C@H](CCCCN)NC(=O)[C@H](CC(C)C)NC(=O)CNC(=O)[C@H](CCC(=O)O)NC(=O)[C@H](CSSC[C@H](NC(=O)[C@@H](N)Cc4ccc(O)cc4)C(=O)N[C@@H](CCC(N)=O)C(=O)N[C@@H](CCCCN)C(=O)N[C@@H](Cc4c[nH]c5ccccc45)C(=O)N[C@@H](CCSC)C(=O)N[C@@H](Cc4c[nH]c5ccccc45)C(=O)N[C@@H]([C@@H](C)O)C(=O)N3)NC2=O)C(=O)N[C@@H](CCCCN)C(=O)N[C@@H](CC(C)C)C(=O)N[C@@H](Cc2c[nH]c3ccccc23)C(=O)N1)[C@@H](C)CC)C(N)=O [compound 84] | 0.26 | 13 | 0.02 | 0.06 | 3.4 |
